In a melting point compilation (Tetko et al.; mined from patent text by program, amines drawn as free bases though some values may be those of a salt) one finds melting point data, which are given here for 65 compounds.

As a reminder, the melting point is the temperature of the solid-liquid transition. For `O=C1CCC(N2C(=O)c3ccccc3C2=O)C(=O)N1CO` (stereo not given), the melting point is 165 °C.
As for `Cc1cc2nccn2nc1OCCCS(=O)(=O)N1CCN(C)CC1`, the melting point lay in the range of 118 to 120 °C.
`CCCCCCCc1ccc(-c2nc(C)c(C(C)=NNC(=N)N)s2)cc1` came in with a melting point of 233 to 235 °C.
As for `Cn1c2c(c3ccccc31)C(=O)C(=Cc1c[nH]cn1)CC2`, the figure is 225 to 232 °C; as for `CC1C(Cl)(Cl)C1(C)c1ccc(O)cc1` (stereo not given), 79 to 82 °C; as for `CCOC(=O)[C@H](Cc1ccc([N+](=O)[O-])cc1I)NC(=O)OCc1ccccc1`, 85 to 87 °C.
As for `ON=C(Cc1ccc(F)cc1)c1ccncc1`, the figure is 155 °C.
As for `CN1Cc2c(-c3nc(CCl)cs3)ncn2-c2ccc(F)c(Cl)c2C1=O`, the figure is 234 to 235 °C; as for `O=C(O)C(=O)CC(=O)c1cccn1Cc1cccc2ccccc12`, 172 to 174 °C; as for `CC[C@@H](O)[C@@H](CCCC(C)=O)OCc1ccccc1`, 30 to 31 °C.
Regarding `c1cc(CCCCn2ccnc2)cc(OCc2ccc3oc(-c4cccs4)nc3c2)c1`, the melting point fell in the range of 97 to 98 °C.
In turn, `CCNC(=O)c1ccc(F)c(F)c1` returned a melting point of 94.1 to 96.2 °C.
The same measure for `COc1cccc(C(F)(F)F)c1O`: 51 to 53 °C; for `O=C(Nc1cccc2c1C(=O)N(C1CCN(c3ccncc3)CC1)C2=O)c1ccc(Cl)s1`: 214 °C; for `Oc1c(C2CCCC2)cc(C2CCCC2)cc1C1CCCC1`: 104 °C.
As for `CCc1c(NC(=O)c2ccc(-c3ccc(F)cc3)cc2)ccc2cc(CN3CCCC3)cnc12`, the melting point is 258 to 260 °C.
`OCCCc1ccc(Nc2c(-c3nnc(NCCN4CCOCC4)o3)ccc(F)c2F)c(F)c1` yielded a melting point of 102 to 106 °C.
`Cc1cc(OC(F)(F)C(F)Cl)nc(N)n1` (stereo not given) displayed a melting point of 73 to 74 °C.
As for `CS(=O)(=O)c1ccc(C2=C(c3ccccc3)CC2)cc1`, the figure is 73 to 75 °C; as for `CC(=O)N1CCc2ccc(C(=O)CCCC3CCN(Cc4ccc(F)cc4)CC3)cc2CC1`, 92 to 94 °C.
On to `CN1CC(CCN(C)c2ccccc2)Oc2ncccc2C1=S` (stereo not given), for which the melting point fell in the range of 164 to 165 °C.
Compound `Cc1ccc(S(=O)(=O)N2CCC[C@H]2C(=O)N[C@@H](Cc2ccc(OCCN3CCOCC3)cc2)C(=O)O)cc1` showed a melting point of 99 to 101 °C.
In the case of `O=C1c2ccccc2C(=O)N1CC(=O)N1c2ccccc2N(Cc2ccccc2)C(=O)CC1C=Cc1ccccc1` (stereo not given), the melting point fell in the range of 183 to 184 °C.
As for `CCCc1nc2c(N)nc3cc(OCCCNS(C)(=O)=O)ccc3c2s1`, the figure is 168 to 171 °C; as for `C=CCOc1ccc(C(=O)c2ccnn2C)c(Cl)c1Cl`, 118 to 119 °C; as for `CCC(O)c1c(C(C)C)nc(C(C)C)c(CO)c1-c1ccc(F)cc1` (stereo not given), 173 to 175 °C.
`Cc1ccc(OC(=O)C=Cc2ccc([N+](=O)[O-])cc2)cc1`: the melting point was in the range of 168 to 170 °C.
In the case of `COC(=O)[C@@H]1C[C@@H](OS(C)(=O)=O)CN1C(=O)OC(C)(C)C`, the melting point was in the range of 86 to 87 °C.
Take `N#CC(=C1CCCN1)c1ccc(Cl)cc1`: the melting point fell in the range of 135 to 137 °C.
Take `CC(C)C(=O)CNC(=O)c1ccccc1`: the melting point lay within 78 to 80 °C.
`CCOc1ccc(C(CC(N)=O)N2C(=O)c3ccccc3C2=O)cc1` (stereo not given) showed a melting point of 191 °C.
As for `Cn1ccnc1C1=Cc2cc(OC(C)(C)C(=O)O)ccc2OC1`, the figure is 187 to 190 °C; as for `Cc1cc(C#N)cc(C(=O)c2c(C(C)C)c(=O)[nH]c(=O)n2Cc2cc(F)cc(NC(=O)C(F)(F)F)c2)c1`, 263 to 264 °C; as for `Cc1[nH]c2ccc(CCO)cc2c1C(=O)OCc1ccccc1`, 170 to 172 °C.
`O=C(/C=C/c1ccc2c(c1)OCCO2)CC(=O)/C=C/c1ccc2c(c1)OCCO2` showed a melting point of 184 to 187 °C.
As for `Nc1ccc2nc(N)sc2c1`, the figure is 202 to 203 °C; as for `COC(=O)c1cn(-c2cc(C(=O)Nc3cc(C(C)(C)C)cc(NS(C)(=O)=O)c3OC)cc(C)c2C)nn1`, 199 °C; as for `O=[N+]([O-])c1cn(-c2cccnc2)nc1C(F)(F)F`, 121 to 123 °C.
As for `O=C(CP(=O)(O)O)NCc1ccccc1`, the figure is 130 to 134 °C; as for `CC(C)N1C(=O)c2cnc(-c3ccccc3)nc2N(C(=O)CCl)c2ccccc21`, 204 to 205 °C; as for `CCC(CO)Nc1ccc(-c2cccc(C(F)(F)F)c2)nn1` (stereo not given), 84 to 87 °C.
The same measure for `NCCCCNC(=O)N1c2ccccc2C=Cc2ccccc21`: 114 to 116 °C.
Consider `CN1Cc2c(C#CC(C)(C)C)ncn2-c2ccccc2C1=O`, for which the melting point lay within 148 to 150 °C.
As for `CC1(C)CCC(NC(N)=O)CC1`, the figure is 174 to 176 °C; as for `CS(=O)(=O)N[C@@H]1CCCC[C@H]1Nc1nc(Nc2ccc3c(c2)CCC(=O)CC3)ncc1Cl`, 146 to 153 °C; as for `COc1ccc2c(c1)/C(=C\CNC(=O)NC(C)(C)C)C(C)(C)CC2`, 175 to 176 °C.
The same measure for `O=C1CCC2=C(CCc3cc(Br)ccc32)N1`: 227 to 228 °C.
With `COc1ccc(OC)c(S(=O)(=O)n2c(COC(C)(C)C(=O)O)cc3cc(Cl)ccc32)c1`, the melting point is 156 to 158 °C.
The compound `CC(C#N)Oc1cccc(C=Cc2ccc3ccc(Cl)cc3n2)c1` (stereo not given) came in with a melting point of 118 to 120 °C.
As for `C=COC(=O)n1c(SCc2ccc(C)cn2)nc2cscc21`, the figure is 78 to 80 °C; as for `CCCCCC1C=CC(c2ccc(C(F)(F)F)cc2)=CC1` (stereo not given), 54 °C; as for `CCCCc1oc2ccccc2c1C(=O)Nc1ccc2c(Br)c(OCC(=O)OC)ccc2c1`, 179 to 181 °C.
As for `CCOC(=O)c1cn2c(C)nnc2cc1Nc1ccc(I)cc1F`, the figure is 201 to 204 °C; as for `N=C1NC(=O)C(c2ccccc2)S1` (stereo not given), 249 to 252 °C; as for `CCOC(=O)COc1cc2c(c(Cl)c1Cl)C(=O)C(C)(C(C)C)C2` (stereo not given), 113 °C.
As for `Cc1ccc2cccc(OCc3cccc([N+](=O)[O-])c3C)c2n1`, the melting point lay in the range of 184 to 188 °C.
Take `CCCCCCCCOc1cc2cc(CO)c(CO)c(-c3ccnc(NN)c3)c2cc1OC`: the melting point lay in the range of 98 to 102 °C.
`CN(C)c1cccc2c(S(=O)(=O)Nc3ncc(Br)nc3Br)cccc12` displayed a melting point of 178 °C.
As for `O=C1NCc2cc(C(c3ccccc3)n3ccnc3)ccc2N1` (stereo not given), the figure is 222 °C.
The same measure for `CCN1c2c(occ(C=O)c2=O)-c2ccccc2S1(=O)=O`: 160 to 162 °C.
The same measure for `CCCCN1C(=O)NC(=C(C)C)C1=O`: 130 °C; for `Cc1cc([C@@H](O)[C@@H]2[C@@H](C)CCCC2(C)C)ccc1C#N`: 111 to 113 °C.
In turn, `CC(=O)Nc1ncsc1C` showed a melting point of 62 to 64 °C.
In turn, `Cn1cc([C@H]2CC[C@@H](N3CCN(c4cc(C(=O)O)cc5cccnc45)CC3)CC2)c2cc(C#N)ccc21` registered a melting point of 230 °C.
The same measure for `CN1C(=O)C=C(c2cccc(Cl)c2)C1=O`: 111 to 113 °C.
